Measured values from US8552002B2 (Novartis AG, priority 2004, dated 2013).
Like-named read-outs stand apart in the source and are kept apart here.

Experiments:
KDR = molecular target: T1, KDR (Homo sapiens, UniProt P35968); test: Inhibitory activity against KDR (VEGF-R2), in vitro data of Examples 170 and 207; type: biochemical; details: 10 μM, read-out: KDR inhibition at 10 μM
T1 construct: expressed in transfected cells; host or cells: CHO cells
How it was run: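 KDR tyrosine phosphorylation detected by luminescence after overnight 4° C capture of 20 μg lysate protein with PY20:AP antibody. Lysates came from cells given compound for 2 h at 37° C, then final 20 ng/ml VEGF for 5 min; compound-free medium as control.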

Tek = molecular target: T2, Tek (Homo sapiens, UniProt Q02763); test: Recombinant GST-Tek (Tie-2) tyrosine kinase assay (33P into poly(Glu,Tyr)); type: biochemical; details: Examples 1 to 169
T2 construct: amino acids 773-1124 of the cytoplasmic kinase domain of human Tek, N-terminally fused to GST; made in house; host or cells: Sf9 insect cells (baculovirus)
T2 sequence (Q02763 773-1124): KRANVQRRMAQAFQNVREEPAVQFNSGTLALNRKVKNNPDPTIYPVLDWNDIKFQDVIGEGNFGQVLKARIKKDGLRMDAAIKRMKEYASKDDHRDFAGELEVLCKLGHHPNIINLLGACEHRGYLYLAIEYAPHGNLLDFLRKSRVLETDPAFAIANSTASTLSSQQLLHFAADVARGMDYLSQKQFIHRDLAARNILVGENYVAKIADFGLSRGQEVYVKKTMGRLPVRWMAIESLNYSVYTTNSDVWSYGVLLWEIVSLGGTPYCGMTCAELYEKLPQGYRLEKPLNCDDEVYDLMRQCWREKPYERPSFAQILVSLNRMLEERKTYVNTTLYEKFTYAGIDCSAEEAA
How it was run: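 Read-out is filter-bound 33P in poly(Glu,Tyr) 4:1 (10 μg/mL) after 30 min at ambient temperature with 4.0 μM ATP. Enzyme: 150 ng human GST-Tek (aa 773-1124) from insect cells, in Tris pH 7.5 with Mn2+/Mg2+ and vanadate. IC50 fitted linearly over four concentrations, usually 0.01-10 μM.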

FGFR3 (K650E) = molecular target: T3, FGFR3 (K650E) (Homo sapiens, UniProt P22607, K650E); test: Recombinant GST-FGFR-3-K650E tyrosine kinase assay (33P into poly(Glu,Tyr)); type: biochemical; details: 10 μM
T3 construct: amino acids 411-806 of the cytoplasmic domain of human FGFR-3, N-terminally fused to GST; made in house; host or cells: Sf9 insect cells (baculovirus)
T3 sequence (P22607 411-806 K650E): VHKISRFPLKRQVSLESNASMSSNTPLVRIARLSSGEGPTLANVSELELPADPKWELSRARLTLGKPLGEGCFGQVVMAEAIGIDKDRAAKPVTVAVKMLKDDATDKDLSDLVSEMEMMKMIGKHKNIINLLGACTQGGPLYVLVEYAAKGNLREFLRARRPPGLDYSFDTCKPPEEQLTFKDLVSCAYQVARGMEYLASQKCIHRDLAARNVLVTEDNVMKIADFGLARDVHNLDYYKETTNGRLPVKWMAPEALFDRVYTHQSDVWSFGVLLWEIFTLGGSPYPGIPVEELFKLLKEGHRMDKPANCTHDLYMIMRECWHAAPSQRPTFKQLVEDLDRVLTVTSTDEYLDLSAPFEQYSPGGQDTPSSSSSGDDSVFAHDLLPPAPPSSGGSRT

c-Abl = c-Abl (Homo sapiens, UniProt P00519); test: Inhibitory activity against c-Abl (Example 207); type: biochemical; details: Examples 171 to 206
Chain of c-Abl (P00519 whole entry): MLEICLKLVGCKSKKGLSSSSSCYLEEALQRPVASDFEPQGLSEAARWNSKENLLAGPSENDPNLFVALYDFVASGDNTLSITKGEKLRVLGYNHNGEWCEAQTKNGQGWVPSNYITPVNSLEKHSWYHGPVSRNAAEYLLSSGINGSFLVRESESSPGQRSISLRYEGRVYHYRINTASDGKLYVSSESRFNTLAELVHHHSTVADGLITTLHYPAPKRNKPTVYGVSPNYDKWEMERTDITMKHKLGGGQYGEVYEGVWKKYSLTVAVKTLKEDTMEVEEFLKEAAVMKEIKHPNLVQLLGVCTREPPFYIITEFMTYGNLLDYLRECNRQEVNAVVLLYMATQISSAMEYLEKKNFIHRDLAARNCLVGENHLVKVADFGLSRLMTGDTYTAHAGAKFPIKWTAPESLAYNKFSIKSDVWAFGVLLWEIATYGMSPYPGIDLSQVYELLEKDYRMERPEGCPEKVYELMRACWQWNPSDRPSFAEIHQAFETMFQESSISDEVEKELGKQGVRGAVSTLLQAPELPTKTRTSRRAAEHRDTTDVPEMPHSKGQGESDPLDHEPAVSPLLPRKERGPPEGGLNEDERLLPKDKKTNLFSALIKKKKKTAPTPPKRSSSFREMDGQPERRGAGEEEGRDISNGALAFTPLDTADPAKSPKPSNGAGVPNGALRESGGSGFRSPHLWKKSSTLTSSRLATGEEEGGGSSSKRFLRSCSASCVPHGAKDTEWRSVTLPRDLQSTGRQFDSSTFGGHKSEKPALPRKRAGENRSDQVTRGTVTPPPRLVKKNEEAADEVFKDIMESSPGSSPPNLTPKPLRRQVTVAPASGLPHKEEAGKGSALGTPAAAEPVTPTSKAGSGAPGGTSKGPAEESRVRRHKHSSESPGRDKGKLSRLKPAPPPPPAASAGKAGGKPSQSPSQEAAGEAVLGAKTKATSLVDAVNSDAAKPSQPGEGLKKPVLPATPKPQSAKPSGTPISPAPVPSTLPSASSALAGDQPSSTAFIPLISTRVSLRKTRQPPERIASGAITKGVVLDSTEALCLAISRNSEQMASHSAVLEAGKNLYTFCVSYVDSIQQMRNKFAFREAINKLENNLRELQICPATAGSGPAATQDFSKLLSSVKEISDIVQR

[1] = Examples 1 to 169, read-out: FGFR3 (K650E) inhibition at 10 μM
[2] = Examples 171 to 206, read-out: FGFR3 inhibition at 10 μM

T1 sequence (P35968 20-1356): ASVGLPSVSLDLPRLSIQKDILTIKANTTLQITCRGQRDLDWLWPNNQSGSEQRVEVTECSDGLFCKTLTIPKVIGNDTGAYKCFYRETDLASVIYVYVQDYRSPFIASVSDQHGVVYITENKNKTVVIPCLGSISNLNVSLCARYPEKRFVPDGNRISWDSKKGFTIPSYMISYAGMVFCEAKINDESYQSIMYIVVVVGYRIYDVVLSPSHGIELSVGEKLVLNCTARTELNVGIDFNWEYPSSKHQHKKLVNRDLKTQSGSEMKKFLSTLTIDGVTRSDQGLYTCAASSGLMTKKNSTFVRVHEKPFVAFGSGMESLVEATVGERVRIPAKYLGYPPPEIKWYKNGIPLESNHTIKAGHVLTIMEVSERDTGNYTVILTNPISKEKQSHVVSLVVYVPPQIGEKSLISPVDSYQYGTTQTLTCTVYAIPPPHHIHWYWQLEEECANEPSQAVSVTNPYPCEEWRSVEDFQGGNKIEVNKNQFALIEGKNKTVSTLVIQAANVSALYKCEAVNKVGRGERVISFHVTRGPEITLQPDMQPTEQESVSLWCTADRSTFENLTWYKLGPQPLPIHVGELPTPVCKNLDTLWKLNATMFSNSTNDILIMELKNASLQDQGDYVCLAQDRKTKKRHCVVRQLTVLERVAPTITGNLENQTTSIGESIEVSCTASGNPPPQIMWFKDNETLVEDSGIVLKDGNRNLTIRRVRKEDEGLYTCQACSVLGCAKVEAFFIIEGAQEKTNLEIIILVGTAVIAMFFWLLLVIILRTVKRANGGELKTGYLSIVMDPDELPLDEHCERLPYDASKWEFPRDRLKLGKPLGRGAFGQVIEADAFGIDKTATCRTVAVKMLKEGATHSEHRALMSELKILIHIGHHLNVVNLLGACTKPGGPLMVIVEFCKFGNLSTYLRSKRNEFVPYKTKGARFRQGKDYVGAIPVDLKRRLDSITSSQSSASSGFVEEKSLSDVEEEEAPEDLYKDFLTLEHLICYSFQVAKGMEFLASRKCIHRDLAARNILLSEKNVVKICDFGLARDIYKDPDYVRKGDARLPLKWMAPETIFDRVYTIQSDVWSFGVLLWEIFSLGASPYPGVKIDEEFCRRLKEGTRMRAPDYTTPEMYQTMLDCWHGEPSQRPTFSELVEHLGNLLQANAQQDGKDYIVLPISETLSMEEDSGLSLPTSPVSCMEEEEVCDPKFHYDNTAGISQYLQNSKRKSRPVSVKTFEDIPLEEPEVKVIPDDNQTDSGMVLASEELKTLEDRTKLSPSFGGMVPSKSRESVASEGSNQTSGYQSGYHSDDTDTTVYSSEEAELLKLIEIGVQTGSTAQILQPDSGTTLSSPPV

## COc1ccc(Cl)c(NC(=O)N(C)c2cc(Nc3ccc(N4CCN(C)CC4)cc3)ncn2)c1Cl [Example 1, 3-(2,6-Dichloro-3-methoxy-phenyl)-1-methyl-1-{6-[4-(4-methyl-piperazin-1-yl)-phenylamino]-pyrimidin-4-yl}-urea]
KDR; Examples 1 to 169
  inhibition at 10 µM: 67 to 100%
Tek
  inhibition at 10 µM: 12 to 100%
other
  melting point: 161.5 to 163 °C

## COc1cc(OC)c(Cl)c(NC(=O)N(C)c2cc(Nc3ccc(N4CCN(C)CC4)cc3)ncn2)c1Cl [Example 2, 3-(2,6-Dichloro-3,5-dimethoxy-phenyl)-1-methyl-1-{6-[4-(4-methyl-piperazin-1-yl)-phenylamino]-pyrimidin-4-yl}-urea]
KDR; Examples 1 to 169
  inhibition at 10 µM: 67 to 100%
Tek
  inhibition at 10 µM: 12 to 100%
FGFR3 (K650E); [1]
  inhibition at 10 µM: 27 to 100%
other
  melting point: 221 °C (dec.)

## CN1CCN(c2cccc(Nc3cc(NC(=O)Nc4c(Cl)cccc4Cl)ncn3)c2)CC1 [Example 5, 1-(2,6-Dichloro-phenyl)-3-{6-[3-(4-methyl-piperazin-1-yl)-phenylamino]-pyrimidin-4-yl}-urea]
KDR; Examples 1 to 169
  inhibition at 10 µM: 67 to 100%
Tek
  inhibition at 10 µM: 12 to 100%
FGFR3 (K650E); [1]
  inhibition at 10 µM: 27 to 100%
other
  melting point: 209 to 212 °C

## Cc1cccc(Cl)c1NC(=O)Nc1cc(NC(C)C)ncn1 [Example 65, 1-(2-Chloro-6-methyl-phenyl)-3-(6-isopropylamino-pyrimidin-4-yl)-urea]
KDR; Examples 1 to 169
  inhibition at 10 µM: 67 to 100%
Tek
  inhibition at 10 µM: 12 to 100%
FGFR3 (K650E); [1]
  inhibition at 10 µM: 27 to 100%
other
  melting point: 233 °C

## O=C(Nc1cc(N[C@H]2CC[C@H](OC(=O)Nc3c(Cl)cccc3Cl)CC2)ncn1)Nc1c(Cl)cccc1Cl [Example 66, (2,6-dichloro-phenyl)-carbamic acid 4-{6-[3-(2,6-dichloro-phenyl)-ureido]-pyrimidin-4-ylamino}-cyclohexylester]
KDR; Examples 1 to 169
  inhibition at 10 µM: 67 to 100%
Tek
  inhibition at 10 µM: 12 to 100%
FGFR3 (K650E); [1]
  inhibition at 10 µM: 27 to 100%
other
  melting point: 222 to 224 °C

## CC(C)Nc1cc(NC(=O)Nc2c(Cl)cc(Cl)cc2Cl)ncn1 [Example 67, 1-(6-Isopropylamino-pyrimidin-4-yl)-3-(2,4,6-trichloro-phenyl)-urea]
KDR; Examples 1 to 169
  inhibition at 10 µM: 67 to 100%
Tek
  inhibition at 10 µM: 12 to 100%
FGFR3 (K650E); [1]
  inhibition at 10 µM: 27 to 100%
other
  melting point: 218 to 220 °C

## CC(C)Nc1cc(NC(=O)Nc2c(Cl)cccc2Cl)ncn1 [Example 68, 1-(2,6-Dichloro-phenyl)-3-(6-isopropylamino-pyrimidin-4-yl)-urea]
KDR; Examples 1 to 169
  inhibition at 10 µM: 67 to 100%
Tek
  inhibition at 10 µM: 12 to 100%
FGFR3 (K650E); [1]
  inhibition at 10 µM: 27 to 100%
other
  melting point: 203 to 204 °C

## CN1CCC(COc2ccc(Nc3cc(NC(=O)Nc4c(Cl)cc(Cl)cc4Cl)ncn3)cc2)CC1 [Example 69, 1-{6-[4-(1-Methyl-piperidin-4-ylmethoxy)-phenylamino]-pyrimidin-4-yl}-3-(2,4,6-trichloro-phenyl)-urea]
KDR; Examples 1 to 169
  inhibition at 10 µM: 67 to 100%
Tek
  inhibition at 10 µM: 12 to 100%
FGFR3 (K650E); [1]
  inhibition at 10 µM: 27 to 100%
other
  melting point: 189 to 191 °C

## Cc1cccc(Cl)c1NC(=O)Nc1cc(Nc2ccc(OCC3CCN(C)CC3)cc2)ncn1 [Example 70, 1-(2-Chloro-6-methyl-phenyl)-3-{6-[4-(1-methyl-piperidin-4-ylmethoxy)-phenylamino]-pyrimidin-4-yl}-urea]
KDR; Examples 1 to 169
  inhibition at 10 µM: 67 to 100%
Tek
  inhibition at 10 µM: 12 to 100%
FGFR3 (K650E); [1]
  inhibition at 10 µM: 27 to 100%
other
  melting point: 178 to 180 °C

## CN1CCC(COc2ccc(Nc3cc(NC(=O)Nc4c(Cl)cccc4Cl)ncn3)cc2)CC1 [Example 71, 1-(2,6-Dichloro-phenyl)-3-{6-[4-(1-methyl-piperidin-4-ylmethoxy)-phenylamino]-pyrimidin-4-yl}-urea]
KDR; Examples 1 to 169
  inhibition at 10 µM: 67 to 100%
Tek
  inhibition at 10 µM: 12 to 100%
FGFR3 (K650E); [1]
  inhibition at 10 µM: 27 to 100%
other
  melting point: 183 to 185 °C

## CN1CCN(c2ccc(Nc3cc(NC(=O)Nc4cc(Cl)ccc4Cl)ncn3)cc2)CC1 [Example 72, 1-(2,5-Dichloro-Phenyl)-3-{6-[4-(4-methyl-piperazin-1-yl)-phenylamino]-pyrimidin-4-yl}-urea]
KDR; Examples 1 to 169
  inhibition at 10 µM: 67 to 100%
Tek
  inhibition at 10 µM: 12 to 100%
FGFR3 (K650E); [1]
  inhibition at 10 µM: 27 to 100%
other
  melting point: 223 to 225 °C

## COc1ccc(N)cc1NC(=O)N(C)c1cc(Nc2ccc(N3CCN(C)CC3)cc2)ncn1 [Example 196, 3-(5-Amino-2-methoxy-phenyl)-1-methyl-1-{6-[4-(4-methyl-piperazin-1-yl)-phenylamino]-pyrimidin-4-yl}-urea]
KDR; Examples 171 to 206
  inhibition at 10 µM: 87 to 100%
c-Abl
  inhibition at 10 µM: 79 to 100%
FGFR3 (K650E); [2]
  inhibition at 10 µM: 56 to 98%

## COc1ccc(NC(=O)c2cccc(C(F)(F)F)c2)cc1NC(=O)N(C)c1cc(Nc2ccc(N3CCN(C)CC3)cc2)ncn1 [Example 197, N-[4-Methoxy-3-(3-methyl-3-{6-[4-(4-methyl-Piperazin-1-yl)-phenylamino]-pyrimidin-4-yl}-ureido)-phenyl]-3-trifluoromethyl-benzamide]
KDR; Examples 171 to 206
  inhibition at 10 µM: 87 to 100%
c-Abl
  inhibition at 10 µM: 79 to 100%
FGFR3 (K650E); [2]
  inhibition at 10 µM: 56 to 98%

## COc1ccc(NC(=O)c2ccc(CN3CCN(C)CC3)c(C(F)(F)F)c2)cc1NC(=O)N(C)c1cc(Nc2ccc(N3CCN(C)CC3)cc2)ncn1 [Example 198, N-[4-Methoxy-3-(3-methyl-3-{6-[4-(4-methyl-piperazin-1-yl)-phenyl-amino]-pyrimidin-4-yl}-ureido)-phenyl]-4-(4-methyl-piperazin-1-ylmethyl)-3-trifluoro-methyl-benzamide]
KDR; Examples 171 to 206
  inhibition at 10 µM: 87 to 100%
c-Abl
  inhibition at 10 µM: 79 to 100%
FGFR3 (K650E); [2]
  inhibition at 10 µM: 56 to 98%

## COc1cc(NC(=O)c2ccc(CN3CCN(C)CC3)c(C(F)(F)F)c2)cc(NC(=O)N(C)c2cc(N)ncn2)c1 [Example 199, N-{3-[3-(6-Amino-pyrimidin-4-yl)-3-methyl-ureido]-5-methoxy-phenyl}-4-(4-methyl-piperazin-1-ylmethyl)-3-trifluoromethyl-benzamide]
KDR; Examples 171 to 206
  inhibition at 10 µM: 87 to 100%
c-Abl
  inhibition at 10 µM: 79 to 100%
FGFR3 (K650E); [2]
  inhibition at 10 µM: 56 to 98%

## COc1cc(NC(=O)c2ccc(CN3CCN(C)CC3)c(C(F)(F)F)c2)cc(NC(=O)N(C)c2cc(Nc3ccccc3)ncn2)c1 [Example 200, N-{3-Methoxy-5-[3-methyl-3-(6-phenylamino-pyrimidin-4-yl)-ureido]-phenyl}-4-(4-methyl-piperazin-1-ylmethyl)-3-trifluoromethyl-benzamide]
KDR; Examples 171 to 206
  inhibition at 10 µM: 87 to 100%
c-Abl
  inhibition at 10 µM: 79 to 100%
FGFR3 (K650E); [2]
  inhibition at 10 µM: 56 to 98%

## COc1cc(NC(=O)c2ccc(C)c(C(F)(F)F)c2)cc(NC(=O)N(C)c2cc(Nc3ccc(N4CCN(C)CC4)cc3)ncn2)c1 [Example 201, N-[3-Methoxy-5-(3-methyl-3-{6-[4-(4-methyl-piperazin-1-yl)-phenyl-amino]-pyrimidin-4-yl}-ureido)-phenyl]-4-methyl-3-trifluoromethyl-benzamide]
KDR; Examples 171 to 206
  inhibition at 10 µM: 87 to 100%
c-Abl
  inhibition at 10 µM: 79 to 100%
FGFR3 (K650E); [2]
  inhibition at 10 µM: 56 to 98%

## CC(=O)Nc1cc(N(C)C(=O)Nc2cc(NC(=O)c3ccc(CN4CCN(C)CC4)c(C(F)(F)F)c3)ccc2C)ncn1 [Example 202, N-[3-[3-(6-Acetylaminopyrimidin-4-yl)-3-methylureido]-4-methylphenyL]-4-(4-methylpiperazin-1-ylmethyl)-3-trifluoromethylbenzamide]
KDR; Examples 171 to 206
  inhibition at 10 µM: 87 to 100%
c-Abl
  inhibition at 10 µM: 79 to 100%
FGFR3 (K650E); [2]
  inhibition at 10 µM: 56 to 98%

## COC(=O)Nc1cc(N(C)C(=O)Nc2cc(NC(=O)c3ccc(CN4CCN(C)CC4)c(C(F)(F)F)c3)ccc2C)ncn1 [Example 203, [6-(1-Methyl-3-{2-methyl-5-[4-(4-methyl-piperazin-1-ylmethyl)-3-trifluoromethyl-benzoylamino]-phenyl}-ureido)-pyrimidin-4-yl]-carbamic acid methyl ester]
KDR; Examples 171 to 206
  inhibition at 10 µM: 87 to 100%
c-Abl
  inhibition at 10 µM: 79 to 100%
FGFR3 (K650E); [2]
  inhibition at 10 µM: 56 to 98%

## COC(=O)Nc1cc(N(C)C(=O)Nc2cc(C(=O)Nc3ccc(CN4CCN(C)CC4)c(C(F)(F)F)c3)ccc2C)ncn1 [Example 204, [6-(1-Methyl-3-{2-methyl-5-[4-(4-methyl-piperazin-1-ylmethyl)-3-trifluoromethyl-phenylcarbamoyl]-phenyl}-ureido)-pyrimidin-4-yl]-carbamic acid methyl ester]
KDR; Examples 171 to 206
  inhibition at 10 µM: 87 to 100%
c-Abl
  inhibition at 10 µM: 79 to 100%
FGFR3 (K650E); [2]
  inhibition at 10 µM: 56 to 98%

## CC(=O)Nc1cc(N(C)C(=O)Nc2cc(C(=O)Nc3ccc(CN4CCN(C)CC4)c(C(F)(F)F)c3)ccc2C)ncn1 [Example 205, 3-[3-(6-Acetylamino-pyrimidin-4-yl)-3-methyl-ureido]-4-methyl-N-[4-(4-methyl-piperazin-1-ylmethyl)-3-trifluoromethyl-phenyl]-benzamide]
KDR; Examples 171 to 206
  inhibition at 10 µM: 87 to 100%
c-Abl
  inhibition at 10 µM: 79 to 100%
FGFR3 (K650E); [2]
  inhibition at 10 µM: 56 to 98%

## Cc1ccc(C(=O)Nc2ccc(CN3CCN(C)CC3)c(C(F)(F)F)c2)cc1NC(=O)N(C)c1cc(N)ncn1 [Example 206, 3-[3-(6-Amino-pyrimidin-4-yl)-3-methyl-ureido]-4-methyl-N-[4-(4-methyl-piperazin-1-ylmethyl)-3-trifluoromethyl-phenyl]-benzamide]
KDR; Examples 171 to 206
  inhibition at 10 µM: 87 to 100%
c-Abl
  inhibition at 10 µM: 79 to 100%
FGFR3 (K650E); [2]
  inhibition at 10 µM: 56 to 98%
